The text below walks through data of publication PMC9947563, “Identification of the molecular determinants of antagonist potency in the allosteric binding pocket of human P2X4” (Frontiers in Pharmacology, 2023).

Bounds are passed on as bounds.

One experiment concerns mP2X4. Conditions: ref Ase et al. (2015); read-out: mP2X4 IC50; cited from earlier work.
The target of experiment [1] is T1, human P2X4 wild type (h4-WT) (Homo sapiens, UniProt Q99571).
T1 construct: expressed in transfected cells; host or cells: 1321N1 astrocytoma cells, stably transfected
T1 sequence (Q99571 1-388): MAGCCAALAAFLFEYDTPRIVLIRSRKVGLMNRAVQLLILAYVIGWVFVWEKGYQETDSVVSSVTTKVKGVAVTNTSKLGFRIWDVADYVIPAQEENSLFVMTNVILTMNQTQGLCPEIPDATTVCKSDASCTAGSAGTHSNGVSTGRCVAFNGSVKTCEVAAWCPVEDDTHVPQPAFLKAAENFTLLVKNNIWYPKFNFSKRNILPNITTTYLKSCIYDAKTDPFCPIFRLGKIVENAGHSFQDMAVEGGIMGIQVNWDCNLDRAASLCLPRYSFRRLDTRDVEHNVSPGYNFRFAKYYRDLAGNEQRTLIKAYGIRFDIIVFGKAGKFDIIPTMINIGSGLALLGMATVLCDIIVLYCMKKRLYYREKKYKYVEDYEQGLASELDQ
The experiment is described as follows: ATP-induced calcium influx (Fluo-4) in 1321N1 cells stably expressing human P2X4 wild type. The class given is cell-based. Conditions: human vs rat P2X4. As for the experimental part: 1321N1 astrocytoma cells were cultured (at 37°C, 5% CO2) in Dulbecco’s modified Eagle’s medium (DMEM/F-12 with Glutamax) supplemented with 10% foetal bovine serum (FBS) and 200 unit/mL of penicillin and streptomycin antibiotics (Fisher Scientific). Stably transfected clones were grown in DMEM/F-12 with Glutamax medium supplemented with G-418 (Geneticin®, Fisher Scientific), 600 μg/mL and 150 μg/mL during selection and maintenance, respectively. […] Each cell line was then tested for P2X4 receptor expression by Western blot and for functionality using the Ca^2+ influx assay.
Cells were plated the day before assay into poly-lysine-coated 96-well plates at 40–55,000 cells/mL. […] Prior to assay, buffer was replaced with fresh modified Ringer’s buffer containing probenecid but not the dye. […] A Fluoroskan Ascent FL plate reader (Fisher Scientific) equipped with a solution dispenser and an appropriate filter pair (excitation: 485 nm, emission: 538 nm) was used to record 5-s baseline followed by P2X4-mediated calcium influx measurements for 20–25 s after ATP stimulation (final concentration ranging between 0.03 and 100 μM in buffered solution, pH = 7.4). The collected responses were normalized to the first data-point recorded after ATP injection.
Data processing and data analysis were carried out using Graphpad Prism version 6 for Mac. Figures are presented as Mean ± SEM. […] When comparing data obtained from multiple independent experiments (N), each dataset was normalized to the mean value obtained for the vehicle control.

A further experiment concerns zebrafish P2X4. Set-up: method as in Ase et al. (2015). Conditions: ref Ase et al. (2015); cited from earlier work.
The target of experiment [2] is T2, rat P2X4 T312I (r4-T312I) (Rattus norvegicus, UniProt P51577, T312I).
T2 construct: expressed in transfected cells; host or cells: 1321N1 astrocytoma cells, stably transfected
T2 sequence (P51577 1-388 T312I): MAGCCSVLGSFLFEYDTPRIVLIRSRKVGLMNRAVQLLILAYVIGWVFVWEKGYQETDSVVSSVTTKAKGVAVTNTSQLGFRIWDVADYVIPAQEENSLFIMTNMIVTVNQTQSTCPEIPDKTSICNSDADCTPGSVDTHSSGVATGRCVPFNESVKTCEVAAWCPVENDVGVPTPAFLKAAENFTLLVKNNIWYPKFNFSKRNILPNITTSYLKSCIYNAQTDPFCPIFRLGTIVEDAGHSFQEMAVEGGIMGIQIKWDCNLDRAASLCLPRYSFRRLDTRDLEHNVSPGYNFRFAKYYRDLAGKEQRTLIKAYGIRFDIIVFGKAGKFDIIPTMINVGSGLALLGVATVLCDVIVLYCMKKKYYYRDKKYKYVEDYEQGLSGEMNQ
The experiment is described as follows: ATP-induced calcium influx (Fluo-4) in 1321N1 cells stably expressing rat P2X4 T312I. The class given is cell-based. From the text:
Plasmid encoding rat P2X4 (r4-WT) ([Royle et al., 2005]) was a kind gift from Ruth Murrell-Lagnado, whilst that encoding human P2X4 with a C-terminal (His)10 tag has been reported previously ([Young et al., 2008]). Plasmids containing rat P2X4 T312I (r4-T312I) and human P2X4 I312T mutants (h4-I312T) were generated using the QuikChange Lightning site-directed mutagenesis kit (Agilent) according to manufacturer’s instructions. Sequencing of the constructs and of the genomic DNA from stably transfected cells confirmed correct full coding sequences.
1321N1 astrocytoma cells were cultured (at 37°C, 5% CO2) in Dulbecco’s modified Eagle’s medium (DMEM/F-12 with Glutamax) supplemented with 10% foetal bovine serum (FBS) and 200 unit/mL of penicillin and streptomycin antibiotics (Fisher Scientific). Stably transfected clones were grown in DMEM/F-12 with Glutamax medium supplemented with G-418 (Geneticin®, Fisher Scientific), 600 μg/mL and 150 μg/mL during selection and maintenance, respectively. FuGene HD Transfection Reagent (Promega) was used according to the manufacturer’s protocol for the generation of stable cell line expressing h4-WT, r4-WT, h4-I312T, and r4-T312I. Each cell line was then tested for P2X4 receptor expression by Western blot and for functionality using the Ca^2+ influx assay.
Cells were plated the day before assay into poly-lysine-coated 96-well plates at 40–55,000 cells/mL. To load cells with calcium-sensitive fluorescent dye, culture medium was replaced with modified Ringer’s buffer (140 mM NaCl, 10 mM HEPES, 10 mM Glucose, 1 mM MgCl2, 1 mM CaCl2, 2.5 mM KCl, 0.5% BSA, pH = 7.4) containing 2.6 μM FLUO4-AM (Fisher Scientific) and 250 μM probenecid (Sigma), and cells were incubated for 20–30 min. Prior to assay, buffer was replaced with fresh modified Ringer’s buffer containing probenecid but not the dye. […] A Fluoroskan Ascent FL plate reader (Fisher Scientific) equipped with a solution dispenser and an appropriate filter pair (excitation: 485 nm, emission: 538 nm) was used to record 5-s baseline followed by P2X4-mediated calcium influx measurements for 20–25 s after ATP stimulation (final concentration ranging between 0.03 and 100 μM in buffered solution, pH = 7.4). The collected responses were normalized to the first data-point recorded after ATP injection.
Data processing and data analysis were carried out using Graphpad Prism version 6 for Mac. Figures are presented as Mean ± SEM. Statistical significance of any difference observed between samples was calculated through one-way ANOVA followed by Dunnett’s multiple comparisons test with a single pooled variance (control, unless otherwise specified) or, when comparing only two sets of data, using an unpaired t-test with Welch’s correction. When comparing data obtained from multiple independent experiments (N), each dataset was normalized to the mean value obtained for the vehicle control.

For another experiment, the system named is rP2X4. The conditions noted are these: ref Ase et al. (2015); cited from earlier work.
In a further experiment the test system is human P2X4 open channel. The arrangement: method as in Bidula et al. (2022). Conditions: ref Bidula et al. (2022); cited from earlier work.

Turning to `CC(C)c1cc(Br)c(NC(=O)Nc2cccnc2)c(Br)c1` [BX430], the half-inhibitory concentration (IC50) was above 10000 nM in the experiment with mP2X4, 1890 nM in the experiment on zebrafish P2X4, 1390 nM in experiment [2] and above 10000 nM in the experiment with rP2X4. Also, the “potency at human P2X4 compared with the rat isoform” value in experiment [1] was “approximately 30 fold”. The “increase in BX430 potency by T312I mutation in rat P2X4” value in experiment [2] (rat P2X4 T312I vs rat P2X4 WT) is “approx. 47 fold”. Moreover, in experiment [2] (rat P2X4 T312I, 1 µM ATP), the “Hill coefficient (BX-430 inhibition curve)” value was found to be 2.475. In the experiment with human P2X4 open channel, the “capability of blocking the open channel” value is on record as “capable of blocking the open channel”.
